In patent US20030087753A1, “System for microbial control of a fluid” (priority 2001, published 2003):

Tests used:
[1] = Adsorption and release of various antibiotics on ultra-stable zeolite Y (USY); assay type: physicochemical; settings: for Amount antibiotic in 20 mg zeolite/ml: USY suspended to 20 mg/ml; for Release concentration of antibiotic: dried USY suspended to 20 mg/ml in buffer; for Amount adsorbed antibiotic/mg zeolite: ultra-stable zeolite Y (USY), amount calculated
Description: This example illustrates adsorption and release of various antibiotics. Ultra-stable zeolite Y (USY) was incubated with various antibiotics and the amounts absorbed to the zeolite were calculated. Then the zeolite was dried and suspended to 20 mg/ml in buffer and the concentrations of released antibiotics in the solutions were determined.

[2] = tested on: Staphylococcus aureus (ATCC 6538); assay: Growth inhibition of Staphylococcus aureus by m-cresol adsorbed on zeolite USY (Eur. Pharm. efficacy of antimicrobial preservation); assay type: cell-based; settings: 5 mg m-cresol/ml dissolved in water, positive control
Description: This example illustrates growth inhibition of Staphylococcus aureus (ATCC 6538), FU ml-1) after incubation with m-cresol adsorbed on zeolite. Test according to Eur. Pharm. nd Ed. VIII 14 (1992). Efficacy of antimicrobial preservation.
Ultra-stable zeolite Y (USY, 63-125 μm particles) was incubated with m-cresol […] after which the zeolite was sucked dry and further dried in warm closet overnight. Zeolite with adsorbed m-cresol was then suspended in PBS and was incubated with Staphylococcus aureus at 37° C. The concentration of m-cresol in the solution after the suspension of zeolite was 0.14 mg/ml.

[3] = Release of cephalothin from ultra-stable zeolite Y (USY) at pH 2.5 and pH 8.0; assay type: physicochemical; settings: 20 mg/ml USY; 10 mM phosphate buffer pH 8.0 after 10 mM glycin pH 2.5
Description: This example illustrates release of cephalothin from ultra-stable zeolite Y (USY) and is described with reference to the diagram in FIG. 10.
Ultra-stable zeolite Y (USY) was incubated with the antibiotic cephalothin 5 mg/ml after which the zeolite was sucked dry and further dried in warm closet. Zeolite with adsorbed cephalothin was suspended repeatedly to 20 mg/ml in 10 mM glycin pH 2.5 (▪) and the concentration of cephalothin in the solutions was determined by absorbency measurement at 260 nm. Then the zeolite was suspended in 10 mM phosphate buffer pH 8.0 (●).

Molecule | Amount antibiotic in 20 mg zeolite/ml [1] | Release concentration of antibiotic [1] | Amount adsorbed antibiotic/mg zeolite [1] | further results
CN(C)[C@@H]1C(=O)C(C(N)=O)=C(O)[C@@]2(O)C(=O)C3=C(O)c4c(O)cccc4[C@@](C)(O)[C@H]3C[C@@H]12 [Tetracyclin] | 1.8 mg/mL | 220 µg/mL | 0.09 mg | –
CC1(C)S[C@@H]2[C@H](NC(=O)[C@H](N)c3ccccc3)C(=O)N2[C@H]1C(=O)O [Ampicilin] | 2.8 mg/mL | 400 µg/mL | 0.14 mg | –
Cc1cccc(O)c1 [Free m-cresol, m-cresol] | – | – | – | CFU/ml ([2]; incubation time 0 h): 5.9 × 10^6 CFU/ml; CFU/ml ([2]; incubation time 2 h): 1.2 × 10^2 CFU/ml; CFU/ml ([2]; incubation time 4 h): 24 CFU/ml; CFU/ml ([2]; incubation time 8 h): 3 CFU/ml; CFU/ml ([2]; incubation time 24 h): 0 CFU/ml; CFU/ml ([2]; incubation time 48 h): 0 CFU/ml
Gentamycin | 3.6 mg/mL | – | 0.18 mg | –
[H]/N=C(/N)N[C@H]1[C@H](O)[C@@H](O)[C@H](O[C@@H]2O[C@@H](C)[C@](O)(C=O)[C@H]2O[C@@H]2O[C@@H](CO)[C@H](O)[C@@H](O)[C@@H]2NC)[C@@H](N/C(N)=N\[H])[C@@H]1O [Streptomycin] | 9.6 mg/mL | 4800 µg/mL | 0.48 mg | –
O=C(N[C@H](CO)[C@H](O)c1ccc([N+](=O)[O-])cc1)C(Cl)Cl [Chloramphemicol] | 2.5 mg/mL | 7 µg/mL | 0.125 mg | –
CC(=O)OCC1=C(C(=O)O)N2C(=O)[C@@H](NC(=O)Cc3cccs3)[C@H]2SC1 [Cephalothin] | 4.2 mg/mL | 4.6 µg/mL | 0.21 mg | release of cephalothin from the zeolite on change of pH [3]: increased release
